This test addresses ROCK2 (Homo sapiens, UniProt O75116). Kind of test: ROCK2 kinase inhibition assay (Caliper LABCHIP, FITC peptide substrate). The class given is biochemical. To be noted: 5 μM ATP, 1.5 μM peptide substrate; value ranges. Summed up:
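Rho kinase with 5 μM ATP and 1.5 μM FITC-AHA-AKRRRLSSLRA-OH peptide in HEPES pH 7.5, 20 mM MgCl2, 0.015% Brij-35, 4 mM DTT, DMSO <2%. EDTA stop; phospho and non-phospho peptide separated on LabChip. IC50 from dose-response fit.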
ROCK2, sequence (O75116 whole entry, species assumed): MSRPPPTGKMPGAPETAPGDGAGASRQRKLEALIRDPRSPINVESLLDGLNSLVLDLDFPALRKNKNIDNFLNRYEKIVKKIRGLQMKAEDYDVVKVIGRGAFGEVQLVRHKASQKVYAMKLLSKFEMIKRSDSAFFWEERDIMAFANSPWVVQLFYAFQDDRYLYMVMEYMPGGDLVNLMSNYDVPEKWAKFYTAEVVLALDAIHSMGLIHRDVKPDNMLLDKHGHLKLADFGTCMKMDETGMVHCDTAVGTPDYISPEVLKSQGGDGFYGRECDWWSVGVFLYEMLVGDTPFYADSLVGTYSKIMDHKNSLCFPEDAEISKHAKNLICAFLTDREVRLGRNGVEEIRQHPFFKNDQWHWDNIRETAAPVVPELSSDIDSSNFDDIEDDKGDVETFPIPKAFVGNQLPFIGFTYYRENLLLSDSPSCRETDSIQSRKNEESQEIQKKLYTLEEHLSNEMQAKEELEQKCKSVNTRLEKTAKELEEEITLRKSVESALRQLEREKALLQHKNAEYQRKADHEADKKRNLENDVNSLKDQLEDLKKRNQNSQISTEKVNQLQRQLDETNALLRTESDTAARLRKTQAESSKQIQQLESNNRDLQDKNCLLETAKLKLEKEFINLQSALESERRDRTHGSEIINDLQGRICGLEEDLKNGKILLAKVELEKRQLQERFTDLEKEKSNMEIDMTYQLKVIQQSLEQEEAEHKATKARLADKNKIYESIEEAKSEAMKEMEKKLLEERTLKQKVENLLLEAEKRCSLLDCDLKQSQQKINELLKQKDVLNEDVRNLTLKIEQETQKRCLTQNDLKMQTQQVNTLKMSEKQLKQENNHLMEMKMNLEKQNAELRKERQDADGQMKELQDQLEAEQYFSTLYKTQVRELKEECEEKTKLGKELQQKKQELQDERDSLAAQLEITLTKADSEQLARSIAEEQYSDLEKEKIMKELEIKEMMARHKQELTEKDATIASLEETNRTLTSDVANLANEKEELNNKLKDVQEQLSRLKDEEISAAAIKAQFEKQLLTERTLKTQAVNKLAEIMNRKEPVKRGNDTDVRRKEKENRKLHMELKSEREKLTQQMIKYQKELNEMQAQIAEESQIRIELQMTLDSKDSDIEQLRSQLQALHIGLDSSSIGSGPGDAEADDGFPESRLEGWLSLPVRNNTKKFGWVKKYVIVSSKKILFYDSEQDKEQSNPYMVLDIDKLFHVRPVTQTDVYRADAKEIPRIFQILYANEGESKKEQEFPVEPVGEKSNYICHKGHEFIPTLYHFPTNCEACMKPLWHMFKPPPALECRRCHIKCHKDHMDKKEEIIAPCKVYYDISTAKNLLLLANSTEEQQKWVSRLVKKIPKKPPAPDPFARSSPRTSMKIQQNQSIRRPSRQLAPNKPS
A word on the IC50: it is the concentration needed to halve the response being measured. `COc1ccc(F)c(CN2CCN(c3ccc(-c4cn[nH]c4)cc3)C2=O)c1` [Example 120, 1-(4-(1H-pyrazol-4-yl)phenyl)-3-(2-fluoro-5-methoxybenzyl)imidazolidin-2-one] had an IC50 of 20.1 to 200 nM. As to `COc1cccc(CN2C(=O)N(c3ccc(-c4cn[nH]c4)cc3)C(=O)C2CO)c1` (centres unmarked) [Example 121, 3-(4-(1H-Pyrazol-4-yl)phenyl)-5-(hydroxymethyl)-1-(3-methoxybenzyl)imidazolidine-2,4-dione], the IC50 is 200 to 2000 nM.

Consider `COc1cccc([C@@H](C)N2CCN(c3ccc(-c4cn[nH]c4)cc3)C2=O)c1` [Example 122, (R)-1-(4-(1H-Pyrazol-4-yl)phenyl)-3-(1-(3-methoxyphenyl)ethyl)imidazolidin-2-one], for which the half-inhibitory concentration (IC50) is less than 2 nM. The result for `COc1cccc(CN2C(=O)N(c3ccc(-c4cn[nH]c4)cc3)C[C@@H]2CO)c1` [Example 125, (R)-1-(4-(1H-Pyrazol-4-yl)phenyl)-4-(hydroxymethyl)-3-(3-methoxybenzyl)imidazolidin-2-one] reads less than 2 nM; that for `COc1cc(F)cc(CN2C(=O)N(c3ccc(-c4cn[nH]c4)cc3)C[C@H]2CO)c1` [Example 129, (S)-1-(4-(1H-pyrazol-4-yl)phenyl)-3-(3-fluoro-5-methoxy-benzyl)-4-(hydroxy-methyl)-imidazolidin-2-one], less than 2 nM. As for `COc1cccc(CN2C(=O)N(c3ccc(-c4cn[nH]c4)cc3)CC2(C)C)c1` [Example 137, 1-(4-(1H-Pyrazol-4-yl)phenyl)-3-(3-methoxybenzyl)-4,4-dimethylimidazolidin-2-one], the figure is less than 2 nM.

Molecule `COc1cc(F)cc(CN2C(=O)N(c3ccc(-c4cn[nH]c4)cc3)CC2(C)C)c1` [Example 138, 1-(4-(1H-pyrazol-4-yl)phenyl)-3-(3-fluoro-5-methoxy-benzyl)-4,4-dimethyl-imidazolidin-2-one] came in with a 50% inhibitory concentration (IC50) of 2.1 to 20 nM.

In turn, `COc1ccc(CN2C(=O)N(c3ccc(-c4cn[nH]c4)cc3)CC2(C)C)cc1F` [Example 139, 1-(4-(1H-pyrazol-4-yl)phenyl)-3-(3-fluoro-4-methoxy-benzyl)-4,4-dimethyl-imidazolidin-2-one] showed an IC50 of 200 to 2000 nM. As for `COc1cc(CN2C(=O)N(c3ccc(-c4cn[nH]c4)cc3)CC2(C)C)ccc1F` [Example 140, 1-(4-(1H-pyrazol-4-yl)phenyl)-3-(4-fluoro-3-methoxy-benzyl)-4,4-dimethyl-imidazolidin-2-one], the figure is 2.1 to 20 nM; as for `CC1(C)CN(c2ccc(-c3cn[nH]c3)cc2)C(=O)N1Cc1cccc(F)c1` [Example 141, 1-(4-(1H-pyrazol-4-yl)phenyl)-3-(3-fluoro-benzyl)-4,4-dimethyl-imidazolidin-2-one], 2.1 to 20 nM; as for `CC1(C)CN(c2ccc(-c3cn[nH]c3)cc2)C(=O)N1Cc1cccc(OC(F)F)c1` [Example 142, 1-(4-(1H-pyrazol-4-yl)phenyl)-3-(3-(difluoro-methoxy)-benzyl)-4,4-dimethyl-imidazolidin-2-one], 20.1 to 200 nM.

`COc1cccc(CN2C(=O)N(c3ccc(-c4cn[nH]c4)cc3)CC2(C)C)c1F` [Example 143, 1-(4-(1H-pyrazol-4-yl)phenyl)-3-(2-fluoro-3-methoxy-benzyl)-4,4-dimethyl-imidazolidin-2-one] registered an IC50 of 20.1 to 200 nM.

Molecule `CC1(C)CN(c2ccc(-c3cn[nH]c3)cc2)C(=O)N1Cc1cccc(OCC2CC2)c1` [Example 144, 1-(4-(1H-pyrazol-4-yl)phenyl)-3-(3-(cyclo-propyl-methoxy)benzyl)-4,4-dimethyl-imidazolidin-2-one] came in with an IC50 of 2.1 to 20 nM. The result for `CCc1cc(N2CC(C)(C)N(Cc3cc(F)cc(OC)c3)C2=O)ccc1-c1cn[nH]c1` [Example 147, 1-(3-ethyl-4-(1H-pyrazol-4-yl)-phenyl)-3-(3-fluoro-5-methoxy-benzyl)-4,4-dimethyl-imidazolidin-2-one] reads 2.1 to 20 nM.

In the case of `CCc1cc(N2CC(C)(C)N(Cc3cccc(OC)c3)C2=O)ccc1-c1cn[nH]c1` [Example 148, 1-(3-ethyl-4-(1H-pyrazol-4-yl)phenyl)-3-(3-methoxy-benzyl)-4,4-dimethyl-imidazolidin-2-one], the IC50 fell in the range of 2.1 to 20 nM. `COc1cc(F)cc(CN2C(=O)N(c3ccc(-c4cn[nH]c4)c(C)n3)CC2(C)C)c1` [Example 151, 3-(3-fluoro-5-methoxy-benzyl)-4,4-dimethyl-1-(6-methyl-5-(1H-pyrazol-4-yl)pyridin-2-yl)-imidazolidin-2-one] gave a half-inhibitory concentration (IC50) of 2.1 to 20 nM. As for `COc1cc(CN2C(=O)N(c3ccc(-c4cn[nH]c4)c(C)n3)CC2(C)C)ccc1F` [Example 152, 3-(4-fluoro-3-methoxy-benzyl)-4,4-dimethyl-1-(6-methyl-5-(1H-pyrazol-4-yl)pyridin-2-yl)-imidazolidin-2-one], the figure is 2.1 to 20 nM; as for `COc1cccc(CN2C(=O)N(c3ccc(-c4cn[nH]c4)cc3)C(=O)C2CO)c1` (centres unmarked) [Example 153, 3-(4-(1H-Pyrazol-4-yl)phenyl)-5-(hydroxymethyl)-1-(3-methoxybenzyl)imidazolidine-2,4-dione], 200 to 2000 nM. The result for `CCc1nc(N2CCN(Cc3cccc(OC)c3)C2=O)ccc1-c1cn[nH]c1` [Example 167, 1-(6-ethyl-5-(1H-pyrazol-4-yl)pyridin-2-yl)-3-(3-methoxy-benzyl) imidazolidin-2-one] reads less than 2 nM; that for `CCc1nc(N2CCN(Cc3cc(F)cc(OC)c3)C2=O)ccc1-c1cn[nH]c1` [Example 168, 1-(6-ethyl-5-(1H-pyrazol-4-yl)pyridin-2-yl)-3-(3-fluoro-5-methoxy-benzyl) imidazolidin-2-one], less than 2 nM. `CCc1nc(N2CCN(Cc3cccc(OCC4CC4)c3)C2=O)ccc1-c1cn[nH]c1` [Example 169, 1-(3-(cyclo-propyl-methoxy)-benzyl)-3-(6-ethyl-5-(1H-pyrazol-4-yl)pyridin-2-yl)-imidazolidin-2-one] displayed an IC50 of 20.1 to 200 nM. For the molecule `CCc1nc(N2CCN(Cc3ccc(F)c(OC)c3)C2=O)ccc1-c1cn[nH]c1` [Example 170, 1-(6-ethyl-5-(1H-pyrazol-4-yl)pyridin-2-yl)-3-(4-fluoro-3-methoxy-benzyl) imidazolidin-2-one], the half-inhibitory concentration (IC50) lay in the range of 2.1 to 20 nM. `CCc1nc(-n2ccn(Cc3ccc(F)c(OC)c3)c2=O)ccc1-c1cn[nH]c1` [Example 171, 1-(6-ethyl-5-(1H-pyrazol-4-yl)pyridin-2-yl)-3-(4-fIuoro-3-methoxy-benzyl)-1H-imidazol-2(3H)-one]: the half-maximal inhibitory concentration (IC50) was 20.1 to 200 nM. As for `CCc1nc(-n2ccn(Cc3cc(F)cc(OC)c3)c2=O)ccc1-c1cn[nH]c1` [Example 172, 1-(6-ethyl-5-(1H-pyrazol-4-yl)pyridin-2-yl)-3-(3-fluoro-5-methoxy-benzyl)-1H-imidazol-2(3H)-one], the figure is 2.1 to 20 nM; as for `CCC1CN(c2ccc(-c3cn[nH]c3)cc2)C(=O)N1Cc1cccc(OC)c1` (centres unmarked) [Example 175, 1-(4-(1H-pyrazol-4-yl)phenyl)-4-ethyl-3-(3-methoxy-benzyl) imidazolidin-2-one], less than 2 nM.

For `CCC1CN(c2ccc(-c3cn[nH]c3)cc2)C(=O)N1Cc1cc(F)cc(OC)c1` (centres unmarked) [Example 176, 1-(4-(1H-pyrazol-4-yl)phenyl)-4-ethyl-3-(3-fluoro-5-methoxy-benzyl) imidazolidin-2-one], the concentration for half-maximal inhibition (IC50) was less than 2 nM.

Source of the values: patent publication US10123993B2, “Cyclic ureas as inhibitors of rock” (BRISTOL-MYERS SQUIBB COMPANY, priority 2015, dated 2018).
